# From patent US20260374781A1, “NOVEL TRIHETEROCYCLIC COMPOUNDS” (IDENCE CO., LTD., priority 2022, published 2026)
# Key:
# [1] = tested on: SW480 cells; experiment: Cell Proliferation Assay, SW480 (CellTiter-Glo 2.0 viability); format: cell-based; settings: Homo sapiens; SW480 colon cancer (KRAS G12V mutation); 72 hours
# Description: (§1) Test Example 3: Cell Proliferation Assay
# (§2) Cell viability testing of test compounds in AsPC-1 pancreatic cancer (KRAS G12D mutation) or SW480 colon cancer (KRAS G12V mutation) cells for 72 hours
# (§3) The reference compound Staurosporine was purchased from Sigma-Aldrich (Saint Louis, MI), and CellTiter-Glo® 2.0 Luminescent cell viability assay reagent (cat #G9243) was purchased from Promega (Madison, WI). AsPC-1 and SW480 cell lines were purchased from American Type Culture Collection (Manassas, VA). AsPC-1 cells were cultured with RPMI-1640 (ATCC, cat #30-2001) and SW480 cells were cultured with DMEM (ATCC cat #30-2002).
# (§4) A medium supplemented with 10% FBS (Sigma-Aldrich, cat #F2442) and 100 µg/mL of penicillin-streptomycin (Sigma-Aldrich, cat #P4333) was used. Cells were cultured at 37 °C in a humidified atmosphere of 5% CO2 and 95% air.
# (§5) • 1. The test compound and reference compound, Staurosporine were dissolved in DMSO solution to prepare 20 mM (test compound) and 10 mM (control compound, Staurosporine) in the Source Plate and diluted with DMSO to 3-fold and 10 doses. • 2. From the Source Plate, 10 volumes of 125 nL test compound or 25 nL reference compound were dispensed into wells of a 384-well culture plate (VWR, cat #82050-076) using Echo 655. • 3. 25 μL of culture medium including 2000 AsPC-1 or SW480 cells was dispensed into each 384-well cell culture plate. • 4. Cells were cultured with the compound for 72 hours at 37 °C and 5% CO2 conditions. • 5. 25 μL of CellTiter-Glo 2.0 reagent was added to each well of the plate. • 6. The contents were mixed for 2 minutes on an orbital shaker, and the luminescence signal was stabilized at room temperature for 15 minutes. • 7. Luminescence signals were measured with an Envision 2104 Multilabel Reader (PerkinElmer, Santa Clara, CA), and the number of surviving cells was determined through quantification of ATP present in each culture. • 8. IC50 values were calculated based on the Sigmoidal dose-response equation in the GraphPad Prism 4 program.
# [2] = tested on: AsPC-1 cells; experiment: Cell Proliferation Assay, AsPC-1 (CellTiter-Glo 2.0 viability); format: cell-based; settings: AsPC-1 pancreatic cancer (KRAS G12D mutation)
# Description: as §1, §2, §3, §4, §5
Structure (SMILES),IC50 [1] [nM],"IC50 ([2]; Homo sapiens, ASPC1, 72 h) [nM]",IC50 ([2]; 72 hours) [nM]
"C#Cc1c(F)ccc2cc(O)cc(-c3nc4c5c(nc(OC[C@@]67CCCN6C[C@H](F)C7)nc5c3F)N([C@H](C)c3cccnc3N)C[C@H](C)O4)c12 [Example 6a, 4-((S)-10-((R)-1-(2-aminopyridin-3-yl)ethyl)-4-fluoro-2-(((2R,7aS)-2-fluorotetrahydro-1H-pyrrolizin-7a(5H)-yl)methoxy)-8-methyl-9,10-dihydro-8H-7-oxa-1,3,6,10-tetraazacyclohepta[de]naphthalen-5-yl)-5-ethynyl-6-fluoronaphthalen-2-ol]",1000 to 10000,1000 to 10000,–
"C#Cc1c(F)ccc2cc(O)cc(-c3nc4c5c(nc(OCC6(CN7CCOCC7)CC6)nc5c3F)N(C(C)c3cccnc3N)CCO4)c12 (stereo not drawn) [Example 12, 4-(10-(1-(2-aminopyridin-3-yl)ethyl)-4-fluoro-2-((1-(morpholinomethyl)cyclopropyl)methoxy)-9,10-dihydro-8H-7-oxa-1,3,6,10-tetraazacyclohepta[de]naphthalen-5-yl)-5-ethynyl-6-fluoronaphthalen-2-ol]",< 1000,1000 to 10000,–
"C#Cc1c(F)ccc2cc(O)cc(-c3nc4c5c(nc(OC[C@@]67CCCN6C[C@H](F)C7)nc5c3F)N([C@H](C)c3cccnc3N)CCO4)c12 [Example 13a, 4-(10-((R)-1-(2-aminopyridin-3-yl)ethyl)-4-fluoro-2-(((2R,7aS)-2-fluorotetrahydro-1H-pyrrolizin-7a(5H)-yl)methoxy)-9,10-dihydro-8H-7-oxa-1,3,6,10-tetraazacyclohepta[de]naphthalen-5-yl)-5-ethynyl-6-fluoronaphthalen-2-ol]",< 1000,< 1000,–
"CCc1c(F)ccc2cc(O)cc(-c3nc4c5c(nc(OC[C@@]67CCCN6C[C@H](F)C7)nc5c3F)N([C@H](C)c3cccnc3N)CCO4)c12 [Example 14a, 4-(10-((R)-1-(2-aminopyridin-3-yl)ethyl)-4-fluoro-2-(((2R,7aS)-2-fluorotetrahydro-1H-pyrrolizin-7a(5H)-yl)methoxy)-9,10-dihydro-8H-7-oxa-1,3,6,10-tetraazacyclohepta[de]naphthalen-5-yl)-5-ethyl-6-fluoronaphthalen-2-ol]",< 1000,< 1000,–
"CCc1c(F)ccc2cc(O)cc(-c3nc4c5c(nc(OC[C@@]67CCCN6C[C@H](OC)C7)nc5c3F)N(C(C)c3cccnc3N)CCO4)c12 (stereo partly drawn) [Example 17, 4-(10-(1-(2-aminopyridin-3-yl)ethyl)-4-fluoro-2-(((2R,7aS)-2-methoxytetrahydro-1H-pyrrolizin-7a(5H)-yl)methoxy)-9,10-dihydro-8H-7-oxa-1,3,6,10-tetraazacyclohepta[de]naphthalen-5-yl)-5-ethyl-6-fluoronaphthalen-2-ol]",< 1000,< 1000,–
"C#Cc1c(F)ccc2cc(O)cc(-c3nc4c5c(nc(OCC6C[C@@H](F)CN6C)nc5c3F)N(C(C)c3cccnc3N)CCO4)c12 (stereo partly drawn) [Example 18, 4-(10-(1-(2-aminopyridin-3-yl)ethyl)-4-fluoro-2-(((4R)-4-fluoro-1-methylpyrrolidin-2-yl)methoxy)-9,10-dihydro-8H-7-oxa-1,3,6,10-tetraazacyclohepta[de]naphthalen-5-yl)-5-ethynyl-6-fluoronaphthalen-2-ol]",< 1000,1000 to 10000,–
"C#Cc1c(F)ccc2cc(O)cc(-c3nc4c5c(nc(OC[C@@]67CCCN6C[C@H](F)C7)nc5c3F)N(C(C)c3ccccc3N)CCO4)c12 (stereo partly drawn) [Example 20, 4-(10-(1-(2-aminophenyl)ethyl)-4-fluoro-2-(((2R,7aS)-2-fluorotetrahydro-1H-pyrrolizin-7a(5H)-yl)methoxy)-9,10-dihydro-8H-7-oxa-1,3,6,10-tetraazacyclohepta[de]naphthalen-5-yl)-5-ethynyl-6-fluoronaphthalen-2-ol]",< 1000,–,–
"CCc1c(F)ccc2cc(O)cc(-c3nc4c5c(nc(OCC6C[C@@H](F)CN6C)nc5c3F)N(C(C)c3cccnc3N)CCO4)c12 (stereo partly drawn) [Example 22, 4-(10-(1-(2-aminopyridin-3-yl)ethyl)-4-fluoro-2-(((4R)-4-fluoro-1-methylpyrrolidin-2-yl)methoxy)-9,10-dihydro-8H-7-oxa-1,3,6,10-tetraazacyclohepta[de]naphthalen-5-yl)-5-ethyl-6-fluoronaphthalen-2-ol]",< 1000,1000 to 10000,–
"CCc1c(F)ccc2cc(O)cc(-c3nc4c5c(nc(OC[C@@]67CCCN6C[C@H](F)C7)nc5c3F)N(C(C)c3cc(C)cnc3N)CCO4)c12 (stereo partly drawn) [Example 23, 4-(10-(1-(2-amino-5-methylpyridin-3-yl)ethyl)-4-fluoro-2-(((2R,7aS)-2-fluorotetrahydro-1H-pyrrolizin-7a(5H)-yl)methoxy)-9,10-dihydro-8H-7-oxa-1,3,6,10-tetraazacyclohepta[de]naphthalen-5-yl)-5-ethyl-6-fluoronaphthalen-2-ol]",< 1000,1000 to 10000,–
"CCc1c(F)ccc2cc(O)cc(-c3nc4c5c(nc(OCC6(C#N)CCOCC6)nc5c3F)N(C(C)c3cccnc3N)CCO4)c12 (stereo not drawn) [Example 24, 4-(((10-(1-(2-aminopyridin-3-yl)ethyl)-5-(8-ethyl-7-fluoro-3-hydroxynaphthalen-1-yl)-4-fluoro-9,10-dihydro-8H-7-oxa-1,3,6,10-tetraazacyclohepta[de]naphthalen-2-yl)oxy)methyl)tetrahydro-2H-pyran-4-carbonitrile]",1000 to 10000,> 10000,–
"CCc1c(F)ccc2cc(O)cc(-c3nc4c5c(nc(OC[C@@H]6CC[C@H]7COCCN76)nc5c3F)N(C(C)c3cccnc3N)CCO4)c12 (stereo partly drawn) [Example 25, 4-(10-(1-(2-aminopyridin-3-yl)ethyl)-4-fluoro-2-(((6S,8aS)-hexahydro-1H-pyrrolo[2,1-c][1,4]oxazin-6-yl)methoxy)-9,10-dihydro-8H-7-oxa-1,3,6,10-tetraazacyclohepta[de]naphthalen-5-yl)-5-ethyl-6-fluoronaphthalen-2-ol]",< 1000,1000 to 10000,–
"CC(c1cccnc1N)N1CCOc2c(Cl)c(-c3ccc(F)c4sc(N)c(C#N)c34)c(F)c3nc(OC[C@@]45CCCN4C[C@H](F)C5)nc1c23 (stereo partly drawn) [Example 29a, (4R)-2-amino-4-(4-(1-(2-aminopyridin-3-yl)ethyl)-8-chloro-10-fluoro-2-(((2R,7aS)-2-fluorotetrahydro-1H-pyrrolizin-7a(5H)-yl)methoxy)-5,6-dihydro-4H-[1,4]oxazepino[5,6,7-de]quinazolin-9-yl)-7-fluorobenzo[b]thiophene-3-carbonitrile]",< 1000,< 1000,–
"CC(c1cccnc1N)N1CCOc2c(Cl)c(-c3ccc(F)c4sc(N)c(C#N)c34)c(F)c3nc(OC[C@@]45CCCN4C[C@H](F)C5)nc1c23 (stereo partly drawn) [Example 29b, (4S)-2-amino-4-(4-(1-(2-aminopyridin-3-yl)ethyl)-8-chloro-10-fluoro-2-(((2R,7aS)-2-fluorotetrahydro-1H-pyrrolizin-7a(5H)-yl)methoxy)-5,6-dihydro-4H-[1,4]oxazepino[5,6,7-de]quinazolin-9-yl)-7-fluorobenzo[b]thiophene-3-carbonitrile]",–,–,1000 to 10000
